Measured values reported in patent USRE46718E1, “Compositions comprising Lactobacillus plantarum strains in combination with tannin and new Lactobacillus plantarum strains” (Probi AB, priority 2003, dated 2018).

Legend:
[1] = Screening for tannase activity (breakdown of methylgallate, Osawa and Walsh); type: biochemical; set-up: key to Tannase activity (positive or negative): +: Positive tannase activity is shown as a green to brown coloration of free gallic acid in the cell-suspension after prolonged exposure to oxygen in an alkaline condition; conditions: for Tannase activity (positive or negative): 24 h incubation with methylgallate at 37° C., visual colour; for Quantitative tannase activity (A440/A620): ratio of A440 after 24 h incubation with methylgallate and A620 of cell-suspension at start; for Tannase activity, in words: where comparative, versus Lactobacillus plantarum 299v
Protocol: The applied method to detect tannase activity has earlier been described by Osawa and Walsh (1993). The detecting principle is that the breakdown of the tannin, methylgallate, is measured by the following procedure:
The test bacterium is cultured anaerobically on MRSagar (Merck, Darmstadt, Germany) for 2 d at 37° C. and then the cells are harvested and suspended in 5 ml 0.9% (w/v) NaCl. The cell-suspension is centrifuged and the cells re-suspended in 10 ml 0.9% NaCl and the absorbance is measured at 620 nm (0.9% NaCl solution as standard). The cell-suspension is diluted until the absorbance is between 0.1 and 0.6 (spectrophotometer, Pharmacia LKB, Novaspec II). After centrifugation, the cells are re-suspended in 1 ml methylgallate-buffer (3.7 g/l methylgallate [Aldrich Chemical Company, Inc., Milwaukee, Wis., USA], 4.5 g/l NaH2PO4, pH=5.0 [sterile filtered]) and the tube is incubated at 37° C. for 24 h. One ml of NaHCO3-buffer (42 g NaHCO3 per litre, pH=8.6) is added and the solution is incubated for 1 h at room temperature, before measurement of the absorbance at 440 nm (NaHCO3-buffer as standard). The colour of the suspension is measured by visual determination.
The colour should be brown or green to be graded as positive tannase activity. A quantitative value of the tannase activity was obtained by the ratio between the absorbance of the cell-suspension (A620; amount of cells) at the start of the incubation with methylgallate versus the absorbance after the 24 h incubation with methylgallate (A440; coloration of free gallic acids after exposure to oxygen in an alkaline condition).

[2] = system: human colonic carcinoma cell-line HT-29; assay: Adhesion to HT-29 cells; type: cell-based; conditions: for Adhesion to HT-29 cells, in salt solution: HBSS, 30 minutes, mean of at least 40 cells; for Capacity to adhere to human colonic mucosa cells, in words: compared with Lactobacillus plantarum 299v
Protocol: In total 32 L. plantarum strains isolated from human mucosa were tested as to adherence to intestinal epithelial cells of human colonic carcinoma cell-line HT-29 with a mannose-specific binding (method as described by Wold, A, et al, Infection and Immunity, October 1988, p. 2531-2537). Cells of the human adenocarcinoma cell line HT-29 were cultured in Eagle's medium supplemented with 10% fetal calf serum, 2 mM L-glutamine and 50 ig/ml of gentamicin (Sigma Chemical Co., Saint Louis, Mo., USA). A few days after the cells had reached confluence they were detached with EDTA-containing buffer (0.54 mM), washed and suspended in Hank's balanced salt solution (HBSS) at 5×10^6/ml. The bacteria were harvested, washed and suspended in HBSS at 5×10^9/ml (2× an optical density of 1.5 at 597 nm). Cells, bacteria and HBSS were mixed in the ratio 1:1:3 and incubated with end-over-end rotation for 30 minutes at 4EC. The cells were washed once with ice cold PBS and fixed with neutral buffered formalin (Histofix, Histolab, Götebrog, Sweden). The number of bacteria attached to each of at least 40 cells was determined using interference contrast microscopy (500× magnification, Nicon Optophot, with interference contrast equipment, Bergström Instruments, Göteborg, Sweden) and the mean number of bacteria per cell was calculated.

[3] = system: ischemia/reperfusion injury; assay: Lipid peroxidation after ischemia/reperfusion injury in mice (LPO-586 colorimetric assay); type: in vivo, Balb/C mice
From the text: Fifteen Balb/C mice were divided into five groups (3 mice per group) and fed different combinations of normal food, rose hip powder (rich in tannins) and the tannase positive strain Lactobacillus plantarum 299v. The constituents were mixed with some water to get a mushy consistency. Groups 1 and 2 were given normal mouse food, Group 3 got the normal food supplemented with rose hip powder (1.6 g per day), Group 4 got normal food supplemented with L. plantarum 299v (10^10 bacteria per dose) and Group 5 got normal food supplemented with both the rose hip powder and L. plantarum 299v. The mice were fed once a day for 6-8 days before inducing an ischemia/reperfusion injury. The injury was done according to the following dissection protocol: Mice were given 0.15 ml of Ketamine/Xylazine solution (7.85 mg/ml and 2.57 mg/ml, respectively) subcutaneously for anesthesia. […] 1.0 ml PBS was injected into the peritoneal cavity for fluid resuscitation. […]
Lipid peroxidation is a well-established mechanism of cellular injury and is used as an indicator of oxidative stress in cells and tissues. […] LPO-586™ is a colorimetric assay designed to quantify MDA and is based on the reaction of a chromogenic reagent, N-methyl-2-phenylindole with MDA at 45° C. One molecule of MDA reacts with two molecules of N-methyl-2-phenylindole to yield a stable chromophore with maximal absorbance at 586 nm.

[4] = system: Bacterial flora in caecum; assay: Bacterial flora in caecum after ischemia/reperfusion injury in mice (viable count); type: in vivo, Balb/C mice; conditions: caecum stool after ischemia/reperfusion
From the text: Fifteen Balb/C mice were divided into five groups (3 mice per group) and fed different combinations of normal food, rose hip powder (rich in tannins) and the tannase positive strain Lactobacillus plantarum 299v. The constituents were mixed with some water to get a mushy consistency. Groups 1 and 2 were given normal mouse food, Group 3 got the normal food supplemented with rose hip powder (1.6 g per day), Group 4 got normal food supplemented with L. plantarum 299v (10^10 bacteria per dose) and Group 5 got normal food supplemented with both the rose hip powder and L. plantarum 299v. The mice were fed once a day for 6-8 days before inducing an ischemia/reperfusion injury. The injury was done according to the following dissection protocol: Mice were given 0.15 ml of Ketamine/Xylazine solution (7.85 mg/ml and 2.57 mg/ml, respectively) subcutaneously for anesthesia. […] 1.0 ml PBS was injected into the peritoneal cavity for fluid resuscitation. […] The abdomen was then closed using a running vicryl 3-0 suture. The animal was allowed to awake from anesthesia and was removed from the warming pad and placed back into the cage. After 4 h and 15 min, the animal was given anesthesia again and tissue and stool samples were obtained in the following order and placed in preweighed tubes: liver tissue, ilium mesentery tissue and cecum stool for bacteriological sampling, and cecum and ilium tissue for colorimetric assay for lipid peroxidaton, and cecum and ilium tissue for histological examination. The samples for bacteriological evaluation were weighed and placed in freezing media and frozen immediately at −70° C. Samples for colorimetric assay (LPO586) were rinsed in PBS, weighed, homogenized, aliquoted and then frozen immediately at −70° C.
Bacteriological evaluation was performed by viable count by anaerobic incubation (BBL Gas Pak Plus, Becton Dickinson and Company, Sparks, Md., USA) on Rogosa-agar (Merck, Darmstadt, Germany) at 37° C. for 3 d, VRBD-agar (Merck, Darmstadt, Germany) at 37° C. for 24 h and Brain heart infusion agar (BHI; Oxoid, Basingstoke, Hampshire, England) at 37° C. for 3 d. Viable count on BHI was also done aerobically.

Substance | Tannase activity (positive or negative) [1] | Quantitative tannase activity (A440/A620) [1] | Adhesion to HT-29 cells, in salt solution [2] | Adhesion to HT-29 cells, in presence of methyl-mannoside [2] | MDA (lipid peroxidation), in words ([3]; compared to the positive control (Group 2)) | Malondialdehyde (MDA) per g colonic tissue [median-value] ([3]; mice fed once a day for 6-8 days before 30 min ischemia, sampled 4 h 15 min after reperfusion, Control B 6.3, uninjured 4.3) | Median of viable count, Total aerobes ([4]; BHI agar aerobic) | Median of viable count, Total anaerobes ([4]; BHI agar anaerobic) | Median of viable count, Lactobacilli ([4]; Rogosa-agar) | Median of viable count, Enterobacteriaceae ([4]; VRBD-agar) | Tannase activity, in words [1] | Capacity to adhere to human colonic mucosa cells, in words [2]
Lactobacillus plantarum 299v, DSM 9843 [Strain 299v] | + | 6.2 | 11.7 number of bacteria per cell | 3.4 number of bacteria per cell | decreased the MDA | 5.8 | 4 × 10^9 CFU per a caecal content | 3 × 10^9 CFU per a caecal content | 2 × 10^9 CFU per a caecal content | 3 × 10^3 CFU per a caecal content |  | 
Lactobacillus plantarum HEAL 99, DSM 15316 | + | 6.8 | 20 number of bacteria per cell | 2.0 number of bacteria per cell |  |  |  |  |  |  | higher tannase activity | higher capacity to adhere
Lactobacillus plantarum HEAL 19, DSM 15313 | + | 7.4 | 23 number of bacteria per cell | 5.0 number of bacteria per cell |  |  |  |  |  |  | higher tannase activity | higher capacity to adhere
Lactobacillus plantarum HEAL 9, DSM 15312 | + | 6.4 | 20 number of bacteria per cell | 2.1 number of bacteria per cell |  |  |  |  |  |  | higher tannase activity | higher capacity to adhere
